Measurements taken from ChEMBL document CHEMBL4402524, “Identification of Novel Resorcinol Amide Derivatives as Potent and Specific Pyruvate Dehydrogenase Kinase (PDHK) Inhibitors” (J Med Chem, 2019).

Experiments:
DU-145 = test: Antiproliferative activity against p53 deficient human DU145 cells incubated for 72 hrs by CellTiter-Glo assay; assay type: functional; details: DU-145, 72 h
Heat shock protein HSP90 = Heat shock protein HSP90 (Homo sapiens, UniProt P07900+P08238); test: Inhibition of HSP90 (unknown origin); assay type: protein assay
NCI-H1299 = test: Antiproliferative activity against p53 deficient human H1299 cells incubated for 72 hrs by CellTiter-Glo assay; assay type: functional; details: NCI-H1299, 72 h
[1] = target: [Pyruvate dehydrogenase (acetyl-transferring)] kinase isozyme 3, mitochondrial (Homo sapiens, UniProt Q15120); test: Inhibition of PDHK3 (unknown origin) by radiometric biochemical kinase assay
[Pyruvate dehydrogenase (acetyl-transferring)] kinase isozyme 3, mitochondrial, sequence (Q15120 whole entry): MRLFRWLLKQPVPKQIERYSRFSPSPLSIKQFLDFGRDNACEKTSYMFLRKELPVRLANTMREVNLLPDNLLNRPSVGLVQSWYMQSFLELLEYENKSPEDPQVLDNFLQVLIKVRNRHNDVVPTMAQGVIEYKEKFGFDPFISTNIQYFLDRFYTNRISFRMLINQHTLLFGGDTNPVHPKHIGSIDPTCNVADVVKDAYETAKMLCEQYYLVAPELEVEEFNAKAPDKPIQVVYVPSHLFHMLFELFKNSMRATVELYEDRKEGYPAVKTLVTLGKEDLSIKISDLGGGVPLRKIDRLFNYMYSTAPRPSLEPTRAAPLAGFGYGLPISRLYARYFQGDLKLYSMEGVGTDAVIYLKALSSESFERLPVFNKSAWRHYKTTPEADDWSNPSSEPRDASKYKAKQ

[2] = target: [Pyruvate dehydrogenase (acetyl-transferring)] kinase isozyme 1, mitochondrial (Homo sapiens, UniProt Q15118); test: Inhibition of PDHK1 (unknown origin) by radiometric biochemical kinase assay
[Pyruvate dehydrogenase (acetyl-transferring)] kinase isozyme 1, mitochondrial, sequence (Q15118 whole entry): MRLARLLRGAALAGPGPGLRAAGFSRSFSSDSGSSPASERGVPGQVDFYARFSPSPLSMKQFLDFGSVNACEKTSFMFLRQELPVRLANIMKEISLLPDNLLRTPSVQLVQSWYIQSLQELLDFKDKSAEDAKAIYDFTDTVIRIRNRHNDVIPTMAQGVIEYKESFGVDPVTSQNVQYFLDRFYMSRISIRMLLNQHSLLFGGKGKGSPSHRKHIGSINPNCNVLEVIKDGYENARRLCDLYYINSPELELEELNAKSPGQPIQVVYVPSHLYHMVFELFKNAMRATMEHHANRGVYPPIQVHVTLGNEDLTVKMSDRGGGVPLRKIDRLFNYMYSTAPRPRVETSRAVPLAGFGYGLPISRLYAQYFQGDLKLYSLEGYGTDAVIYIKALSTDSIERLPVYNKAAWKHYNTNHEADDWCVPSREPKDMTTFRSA

[3] = target: T1, [Pyruvate dehydrogenase (acetyl-transferring)] kinase isozyme 2, mitochondrial (Homo sapiens, UniProt Q15119); test: Inhibition of PDHK2 (unknown origin) by radiometric biochemical kinase assay
[4] = target: T2, [Pyruvate dehydrogenase (acetyl-transferring)] kinase isozyme 4, mitochondrial (Homo sapiens, UniProt Q16654); test: Inhibition of PDHK4 (unknown origin) by radiometric biochemical kinase assay
T2 sequence (Q16654 whole entry): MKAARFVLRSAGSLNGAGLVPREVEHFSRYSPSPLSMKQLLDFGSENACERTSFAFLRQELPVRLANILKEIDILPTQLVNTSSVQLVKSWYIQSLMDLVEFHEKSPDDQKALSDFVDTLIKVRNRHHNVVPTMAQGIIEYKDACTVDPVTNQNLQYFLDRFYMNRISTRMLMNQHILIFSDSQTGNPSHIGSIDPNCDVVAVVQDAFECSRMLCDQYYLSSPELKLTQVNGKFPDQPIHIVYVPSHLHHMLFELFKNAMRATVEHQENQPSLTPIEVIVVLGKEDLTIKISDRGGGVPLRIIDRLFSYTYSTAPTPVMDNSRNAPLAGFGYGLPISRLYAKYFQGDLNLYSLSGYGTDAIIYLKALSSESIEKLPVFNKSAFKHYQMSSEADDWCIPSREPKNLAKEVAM

[5] = target: T2, [Pyruvate dehydrogenase (acetyl-transferring)] kinase isozyme 4, mitochondrial; test: Inhibition of PDHK4 (unknown origin) assessed as reduction in NAD measured for 30 mins
[6] = target: T1, [Pyruvate dehydrogenase (acetyl-transferring)] kinase isozyme 2, mitochondrial; test: Inhibition of PDHK2 (unknown origin) assessed as reduction in NAD measured for 30 mins

Compound | GI50 (DU-145) | IC50 (Heat shock protein HSP90) | GI50 (NCI-H1299) | IC50 [1] | IC50 [2] | IC50 [3] | IC50 [4] | IC50 [5] | IC50 [6]
Cc1cnc(Cl)nc1-c1ccc(N(Cc2ccc(CNC(=O)C(F)F)cc2)C(=O)c2ccc(O)cc2O)cc1 | > 50000 nM | > 10000 nM | > 50000 nM | – | – | – | – | – | –
CN(C)C(=O)c1ccc(N(CC2CCCCC2)C(=O)c2ccc(O)cc2O)cc1 | – | – | – | 858 nM | 140 nM | 184 nM | 775 nM | – | –
CN(C)C(=O)c1ccc(N(Cc2ccco2)C(=O)c2ccc(O)cc2O)cc1 | 9000 nM | 770 nM | 7800 nM | 67 nM | 48 nM | 133 nM | 69 nM | 580 nM | 1090 nM
CN(C)C(=O)c1ccc(N(Cc2ncc(Br)s2)C(=O)c2ccc(O)cc2O)cc1 | 40800 nM | 6000 nM | 60200 nM | 64 nM | 20 nM | 64 nM | 20 nM | – | –
CN(C)C(=O)c1ccc(N(Cc2ccc(Cl)cc2)C(=O)c2ccc(O)cc2O)cc1 | 51000 nM | – | 31500 nM | – | – | 126 nM | 169 nM | – | –
CN(C)C(=O)c1ccc(N(Cc2ccc(C#N)s2)C(=O)c2ccc(O)cc2O)cc1 | 59800 nM | – | 107000 nM | 98 nM | 57 nM | 95 nM | 89 nM | – | –
CC(=O)Nc1ccc(CN(C(=O)c2ccc(O)cc2O)c2ccc(C(=O)N3CCCC3)cc2)cc1 | – | – | – | – | – | 1660 nM | 1810 nM | – | –
Cc1ccc(CN(C(=O)c2ccc(O)cc2O)c2ccc(C(=O)N(C)C)cc2)o1 | – | – | – | 255 nM | 20 nM | 252 nM | 52 nM | – | –
CC(=O)Nc1ccc(CN(C(=O)c2ccc(O)cc2O)c2ccc(C(=O)N(C)C)cc2)cc1 | – | – | – | – | – | 503 nM | 311 nM | – | –
CN(C)C(=O)c1ccc(N(Cc2ccc3ccccc3c2)C(=O)c2ccc(O)cc2O)cc1 | – | – | – | – | – | 373 nM | 234 nM | – | –
CN(C)C(=O)c1ccc(N(Cc2ccc(Cl)o2)C(=O)c2ccc(O)cc2O)cc1 | 29900 nM | – | 30000 nM | 181 nM | 24 nM | 193 nM | 82 nM | – | –
CC(=O)Nc1ccc(CN(C(=O)c2ccc(O)cc2O)c2ccc(C(=O)N3CCOCC3)cc2)cc1 | – | – | – | – | – | 2660 nM | 5790 nM | – | –
CN(C)C(=O)c1ccc(N(Cc2ccc(I)o2)C(=O)c2ccc(O)cc2O)cc1 | 15900 nM | – | 39200 nM | 5 nM | 14 nM | 98 nM | 11 nM | – | –
CN(C)C(=O)c1ccc(N(Cc2ccc(C(F)(F)F)cc2)C(=O)c2ccc(O)cc2O)cc1 | – | – | – | – | – | 140 nM | 273 nM | – | –
CC(=O)Nc1ccc(CN(C(=O)c2ccc(O)cc2O)c2ccc(C(=O)NCCO)cc2)cc1 | – | – | – | – | – | 9910 nM | 12300 nM | – | –
CN(C)C(=O)c1ccc(N(CC(C)(C)C)C(=O)c2ccc(O)cc2O)cc1 | – | – | – | – | – | 772 nM | 5330 nM | – | –
